Reference: US8889712B2, “IAP antagonists” (Bristol-Myers Squibb Company, priority 2012, dated 2014)
Read-outs that look alike come from different tables or passages of the source.

Columns and labels:
XIAP BIR2-3 = target: T1, XIAP BIR2-3 (Homo sapiens, UniProt P98170, C202A/C213G); assay: XIAP-BIR2-3 dimeric SMAC Peptide Homogeneous Time Resolved Fluorescence (HTRF) Assay; format: binding
T1 construct: His-BIR2-3 (125-356, C202A/C213G, XIAP)
Method: B. […] Assays were performed in black, flat-bottom, 384-well plates. […] Compounds were dissolved at 3 mM in dimethylsulfoxide (DMSO) and evaluated at eleven serially diluted concentrations. IC50 and Ki values were derived by non-linear regression analysis.

XIAP BIR3 = target: T2, XIAP BIR3 (Homo sapiens, UniProt P98170); assay: XIAP-BIR3/SMAC Homogeneous Time Resolved Fluorescence (HTRF) Assay; format: binding
T2 construct: His-BIR3 (241-356, XIAP)
Method: A. XIAP-BIR3/SMAC Homogeneous Time Resolved Fluorescence (HTRF) Assay Assays were performed in black, flat-bottom, 384-well plates. […] The reaction was incubated at room temperature for 60 minutes, following which 10 μl of mouse anti-6×His-terbium labeled Fab (Medarex, Cis-bio) was added to the reaction (40 μl) for an additional 30 minute incubation. […] Compounds were dissolved at 3 mM in dimethylsulfoxide (DMSO) and evaluated at eleven serially diluted concentrations. IC50 and Ki values were derived by non-linear regression analysis.

[1] = 0.5 nM N-His-BIR2-3 (125-356, C202A/C213G, XIAP), 20 nM fluorescein labeled dimeric SMAC peptide, HTRF signal, read-out: XIAP BIR2-3 IC50
[2] = 1 nM N-His-BIR3 (241-356, XIAP), 5 nM fluorescein labeled SMAC peptide, HTRF signal, read-out: XIAP BIR3 IC50

T2 sequence (P98170 241-356): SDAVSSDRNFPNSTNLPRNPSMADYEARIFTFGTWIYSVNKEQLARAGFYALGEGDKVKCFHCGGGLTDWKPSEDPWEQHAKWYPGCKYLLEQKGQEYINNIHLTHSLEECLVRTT
T1 sequence (P98170 125-356 C202A/C213G): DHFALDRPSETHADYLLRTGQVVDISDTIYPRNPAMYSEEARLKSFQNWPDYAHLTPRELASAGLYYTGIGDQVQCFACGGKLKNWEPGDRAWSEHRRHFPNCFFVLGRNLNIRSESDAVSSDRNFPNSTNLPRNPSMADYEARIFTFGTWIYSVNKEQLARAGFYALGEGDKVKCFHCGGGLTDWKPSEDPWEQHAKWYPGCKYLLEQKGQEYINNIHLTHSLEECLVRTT

SMILES	IC50 (XIAP BIR2-3) [nM]	IC50 (XIAP BIR3) [nM]	IC50 (XIAP BIR2-3; [1]) [nM]	IC50 (XIAP BIR3; [2]) [nM]
CN[C@@H](C)C(=O)N[C@H](C(=O)N1Cc2cc([C@H]3C[C@@H](C(=O)N[C@@H]4CCCc5ccccc54)N(C(=O)[C@@H](NC(=O)[C@H](C)NC)C(C)(C)C)C3)ccc2C[C@H]1C(=O)N[C@@H]1CCCc2ccccc21)C(C)(C)C [Example 22, (S)-2-((S)-3,3-Dimethyl-2-((S)-2-(methylamino)propanamido)butanoyl)-7-((3R,5S)-1-((S)-3,3-dimethyl-2-((S)-2-(methylamino)propanamido)butanoyl)-5-(((R)-1,2,3,4-tetrahydronaphthalen-1-yl)carbamoyl)pyrrolidin-3-yl)-N—((R)-1,2,3,4-tetrahydronaphthalen-1-yl)-1,2,3,4-tetrahydroisoquinoline-3-carboxamide]	1	2		
CN[C@@H](C)C(=O)N[C@H](C(=O)N1Cc2cc([C@H]3C[C@@H](C(=O)N[C@@H]4CCCc5ccccc54)N(C(=O)[C@@H](NC(=O)[C@H](C)NC)C(C)(C)C)C3)ccc2C[C@H]1C(=O)N[C@H](C)c1ccccc1F)C(C)(C)C [Example 23, (S)-2-((S)-3,3-Dimethyl-2-((S)-2-(methylamino)propanamido)butanoyl)-7-((3R,5S)-1-((S)-3,3-dimethyl-2-((S)-2-(methylamino)propanamido)butanoyl)-5-(((R)-1,2,3,4-tetrahydronaphthalen-1-yl)carbamoyl)pyrrolidin-3-yl)-N—((R)-1-(2-fluorophenyl)ethyl)-1,2,3,4-tetrahydroisoquinoline-3-carboxamide]			3	4
CN[C@@H](C)C(=O)N[C@H](C(=O)N1Cc2cc([C@H]3C[C@@H](C(=O)N[C@@H]4CCCc5ccccc54)N(C(=O)[C@@H](NC(=O)[C@H](C)NC)C(C)(C)C)C3)ccc2C[C@H]1C(=O)N[C@@H]1CCCc2ccccc21)C1CCOCC1 [Example 24, (S)-7-((3R,5S)-1-((S)-3,3-Dimethyl-2-((S)-2-(methylamino)propanamido)butanoyl)-5-(((R)-1,2,3,4-tetrahydronaphthalen-1-yl)carbamoyl)pyrrolidin-3-yl)-2-((S)-2-((S)-2-(methylamino)propanamido)-2-(tetrahydro-2H-pyran-4-yl)acetyl)-N—((R)-1,2,3,4-tetrahydronaphthalen-1-yl)-1,2,3,4-tetrahydroisoquinoline-3-carboxamide]			1	3
CN[C@@H](C)C(=O)N[C@H](C(=O)N1Cc2ccc(C(=O)N[C@H]3C[C@@H](C(=O)N[C@@H]4CCCc5ccccc54)N(C(=O)[C@@H](NC(=O)[C@H](C)NC)C(C)(C)C)C3)cc2C[C@H]1C(=O)N[C@@H]1CCCc2ccccc21)C(C)(C)C [Example 25, (S)-2-((S)-3,3-Dimethyl-2-((S)-2-(methylamino)propanamido)butanoyl)-N6-((3S,5S)-1-((S)-3,3-dimethyl-2-((S)-2-(methylamino)propanamido)butanoyl)-5-(((R)-1,2,3,4-tetrahydronaphthalen-1-yl)carbamoyl)pyrrolidin-3-yl)-N^3—((R)-1,2,3,4-tetrahydronaphthalen-1-yl)-1,2,3,4-tetrahydroisoquinoline-3,6-dicarboxamide]			3	4
CN[C@@H](C)C(=O)N[C@H](C(=O)N1Cc2ccc(C(=O)N[C@H]3C[C@@H](C(=O)N[C@@H]4CCCc5ccccc54)N(C(=O)[C@@H](NC(=O)[C@H](C)NC)C(C)(C)C)C3)cc2C[C@@H]1C(=O)N[C@@H]1CCCc2ccccc21)C(C)(C)C [Example 26, (R)-2-((S)-3,3-Dimethyl-2-((S)-2-(methylamino)propanamido)butanoyl)-N6-((3S,5S)-1-((S)-3,3-dimethyl-2-((S)-2-(methylamino)propanamido)butanoyl)-5-(((R)-1,2,3,4-tetrahydronaphthalen-1-yl)carbamoyl)pyrrolidin-3-yl)-N^3—((R)-1,2,3,4-tetrahydronaphthalen-1-yl)-1,2,3,4-tetrahydroisoquinoline-3,6-dicarboxamide]			196	11
CN[C@@H](C)C(=O)N[C@H](C(=O)N1Cc2cc(NC(=O)[C@H]3C[C@@H](C(=O)N[C@@H]4CCCc5ccccc54)N(C(=O)[C@@H](NC(=O)[C@H](C)NC)C(C)(C)C)C3)ccc2C[C@H]1C(=O)N[C@@H]1CCCc2ccccc21)C(C)(C)C [Example 27, (2S,4S)-1-((S)-3,3-Dimethyl-2-((S)-2-(methylamino)propanamido)butanoyl)-N^4—((S)-2-((S)-3,3-dimethyl-2-((S)-2-(methylamino)propanamido)butanoyl)-3-(((R)-1,2,3,4-tetrahydronaphthalen-1-yl)carbamoyl)-1,2,3,4-tetrahydroisoquinolin-7-yl)-N^2—((R)-1,2,3,4-tetrahydronaphthalen-1-yl)pyrrolidine-2,4-dicarboxamide]	1	5		
CN[C@@H](C)C(=O)N[C@H](C(=O)N1C[C@@H](c2ccc3c(c2)CN(C(=O)[C@@H](NC(=O)[C@H](C)NC)C(C)(C)SCCO)[C@H](C(=O)N[C@@H]2CCCc4ccccc42)C3)C[C@H]1C(=O)N[C@@H]1CCCc2ccccc21)C(C)(C)C [Example 28, (S)-7-((3R,5S)-1-((S)-3,3-Dimethyl-2-((S)-2-(methylamino)propanamido)butanoyl)-5-(((R)-1,2,3,4-tetrahydronaphthalen-1-yl)carbamoyl)pyrrolidin-3-yl)-2-((R)-3-((2-hydroxyethyl)thio)-3-methyl-2-((S)-2-(methylamino)propanamido)butanoyl)-N—((R)-1,2,3,4-tetrahydronaphthalen-1-yl)-1,2,3,4-tetrahydroisoquinoline-3-carboxamide]			2.2	5.1
CN[C@@H](C)C(=O)N[C@H](C(=O)N1C[C@@H](c2ccc3c(c2)CN(C(=O)[C@@H](NC(=O)[C@H](C)NC)C(C)(C)SCC(=O)NCCO)[C@H](C(=O)N[C@@H]2CCCc4ccccc42)C3)C[C@H]1C(=O)N[C@@H]1CCCc2ccccc21)C(C)(C)C [Example 29, (S)-7-((3R,5S)-1-((S)-3,3-Dimethyl-2-((S)-2-(methylamino)propanamido)butanoyl)-5-(((R)-1,2,3,4-tetrahydronaphthalen-1-yl)carbamoyl)pyrrolidin-3-yl)-2-((R)-3-((2-((2-hydroxyethyl)amino)-2-oxoethyl)thio)-3-methyl-2-((S)-2-(methylamino)propanamido)butanoyl)-N—((R)-1,2,3,4-tetrahydronaphthalen-1-yl)-1,2,3,4-tetrahydroisoquinoline-3-carboxamide]			0.8	11.7
CN[C@@H](C)C(=O)N[C@H](C(=O)N1C[C@@H](c2ccc3c(c2)CN(C(=O)[C@@H](NC(=O)[C@H](C)NC)C(C)(C)SCC(=O)N(C)C)[C@H](C(=O)N[C@@H]2CCCc4ccccc42)C3)C[C@H]1C(=O)N[C@@H]1CCCc2ccccc21)C(C)(C)C [Example 30, (S)-7-((3R,5S)-1-((S)-3,3-Dimethyl-2-((S)-2-(methylamino)propanamido)butanoyl)-5-(((R)-1,2,3,4-tetrahydronaphthalen-1-yl)carbamoyl)pyrrolidin-3-yl)-2-((R)-3-((2-(dimethylamino)-2-oxoethyl)thio)-3-methyl-2-((S)-2-(methylamino)propanamido)butanoyl)-N-((R)-1,2,3,4-tetrahydronaphthalen-1-yl)-1,2,3,4-tetrahydroisoquinoline-3-carboxamide]			5.7	3.9
CN[C@@H](C)C(=O)N[C@H](C(=O)N1C[C@@H](c2ccc3c(c2)CN(C(=O)[C@@H](NC(=O)[C@H](C)NC)C(C)(C)SCC(=O)NC(CO)CO)[C@H](C(=O)N[C@@H]2CCCc4ccccc42)C3)C[C@H]1C(=O)N[C@@H]1CCCc2ccccc21)C(C)(C)C [Example 31, (S)-2-((R)-3-((2-((1,3-Dihydroxypropan-2-yl)amino)-2-oxoethyl)thio)-3-methyl-2-((S)-2-(methylamino)propanamido)butanoyl)-7-((3R,5S)-1-((S)-3,3-dimethyl-2-((S)-2-(methylamino)propanamido)butanoyl)-5-(((R)-1,2,3,4-tetrahydronaphthalen-1-yl)carbamoyl)pyrrolidin-3-yl)-N-((R)-1,2,3,4-tetrahydronaphthalen-1-yl)-1,2,3,4-tetrahydroisoquinoline-3-carboxamide]			1.2	13.8
CN[C@@H](C)C(=O)N[C@H](C(=O)N1CC(c2ccc3c(c2)CN(C(=O)[C@@H](NC(=O)[C@H](C)NC)C(C)(C)SCC(=O)O)[C@H](C(=O)NC2CCCc4ccccc42)C3)C[C@H]1C(=O)NC1CCCc2ccccc21)C(C)(C)C (stereo partly drawn) [Example 32, 2-(((R)-4-((S)-7-((3R,5S)-1-((S)-3,3-Dimethyl-2-((S)-2-(methylamino)propanamido)butanoyl)-5-(((R)-1,2,3,4-tetrahydronaphthalen-1-yl)carbamoyl)pyrrolidin-3-yl)-3-(((R)-1,2,3,4-tetrahydronaphthalen-1-yl)carbamoyl)-3,4-dihydroisoquinolin-2(1H)-yl)-2-methyl-3-((S)-2-(methylamino)propanamido)-4-oxobutan-2-yl)thio)acetic acid, 2TFA]			1.9	8.7
